Results on five molecules are retold here after patent US6521445B1, “Process for preparing optically active glycidate esters” (Sepracor, Inc., priority 1988, dated 2003).

Each structure is given as a SMILES string. Where only a bound is given, the exact number is not on record here.

Series [1] deals with Lipase OF. Description: Degree of inhibition by reaction products: initial rate of hydrolysis of compound A by Lipase OF. The class given is biochemical, Candida cylindracea. To be noted: pH 8.0, 400 mM compound A in toluene, in the presence of 1 mmole (50 mM) of the compound, A alone = 1.0. Here is the method:
(§1) A reaction mixture composed of 12 mls of 50 mM sodium phosphate buffer at pH 8.0 and 8 mls of a 400 mM toluene solution of pure, racemic compound A, was rapidly stirred and the reaction rate monitored by a device known as a “pH stat”. A given amount of a given commercial enzyme preparation was then added to the reaction mixture, and the initial rate of hydrolysis calculated. The reaction was repeated in the presence of 1 mmole (50 mM) of compound C, in the presence of 1 mmole (50 mM) of compound D, and in the presence of 1 mmole (50 mM) of compound E. The results are tabulated in Table 11.

For series [2], the system named is Lipase MAP. Nature of the series: Degree of inhibition by reaction products: initial rate of hydrolysis of compound A by Lipase MAP. The format is biochemical. To be noted: pH 8.0, 400 mM compound A in toluene, in the presence of 1 mmole (50 mM) of the compound, A alone = 1.0. The protocol: as §1
The target in series [3] is T1, Lipase P (Burkholderia cepacia, UniProt P22088).
T1 construct: purchased Amano
T1 sequence (P22088 45-364): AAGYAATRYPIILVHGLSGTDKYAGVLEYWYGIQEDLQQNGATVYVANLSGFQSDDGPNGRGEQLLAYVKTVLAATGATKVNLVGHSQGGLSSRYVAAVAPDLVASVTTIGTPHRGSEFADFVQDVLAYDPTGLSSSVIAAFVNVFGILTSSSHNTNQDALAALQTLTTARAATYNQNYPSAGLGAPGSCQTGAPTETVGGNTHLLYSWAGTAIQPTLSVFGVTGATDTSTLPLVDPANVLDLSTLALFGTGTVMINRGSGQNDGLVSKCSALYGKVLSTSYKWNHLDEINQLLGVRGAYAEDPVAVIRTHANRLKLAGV
Description: Degree of inhibition by reaction products: initial rate of hydrolysis of compound A by Lipase P. The format is biochemical. To be noted: pH 8.0, 400 mM compound A in toluene, in the presence of 1 mmole (50 mM) of the compound, A alone = 1.0. The protocol:
as §1

The target in series [4] is T2, Palatase M (Rhizomucor miehei, UniProt P19515).
T2 construct: purchased Novo
T2 sequence (P19515 95-363): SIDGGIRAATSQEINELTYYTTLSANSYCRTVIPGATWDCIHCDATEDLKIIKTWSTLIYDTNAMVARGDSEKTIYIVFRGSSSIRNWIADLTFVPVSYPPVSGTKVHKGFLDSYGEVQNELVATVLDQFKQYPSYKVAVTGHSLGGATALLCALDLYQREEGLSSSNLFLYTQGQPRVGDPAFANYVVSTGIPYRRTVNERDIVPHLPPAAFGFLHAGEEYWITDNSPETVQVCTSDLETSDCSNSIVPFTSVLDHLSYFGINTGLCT
Nature of the series: Degree of inhibition by reaction products: initial rate of hydrolysis of compound A by Palatase M. The format is biochemical. Conditions: pH 8.0, 400 mM compound A in toluene, in the presence of 1 mmole (50 mM) of the compound, A alone = 1.0. The protocol: as §1

Series [5] can be described thus: Non-enzymatic degradation of substrate ester in the presence of BSA. The class given is physicochemical. The text has this: Following these experiments, another factor was then considered. As the interfacial activity of any compound will be affected by surfactants, for instance a protein, one could expect the presence of the enzyme to exert effects on the non-enzymatic nonspecific degradation of the substrate compound. To test this proposition, control experiments were run in which bovine serum albumin (BSA) was substituted for the hydrolytic enzyme in the reaction mixture. The chlorinated hydrocarbons and p-xylene were omitted for convenience.
Racemic 3-(4-methoxyphenyl) glycidic acid methyl ester (10.0 mmols, 2.08 g) was dissolved in 50 mL of the chosen organic solvent, and added to 50 mL of 200 mM sodium phosphate buffer at the chosen pH (7.0, 8.0, or 8.5) in a 250 mL shaker flask. Bovine serum albumin (BSA, 100 mg) was then added. The flask was closed, and agitated for 18 hours at ambient temperature (20-25° C.). The reaction mixture was then poured into a separatory funnel, the organic layer removed (except in the case of 1,4-dioxane, which is miscible in water), and the aqueous layer washed with diethyl ether. The organic layers were then combined, backwashed with water, and dried over anhydrous magnesium sulfate. The organic solvent was then removed under reduced pressure, and the recovered ester weighed to determine the extent of non-enzymatic degradation.

A short description of series [6]: Stability of glycidic ester in aqueous phosphate buffer with and without toluene. The format is physicochemical. The text has this:
In the present invention, enzyme catalysts are present either dissolved or dispersed in an aqueous phase. Although the glycidic esters described herein are generally quite insoluble in water, the epoxide ring is susceptible to opening through nucleophilic attack by species such as hydroxide ions and water molecules, even in the absence of enzymes. […] Therefore, the use of an organic phase as a method for protecting the substrate from undesired transformations by water, hydroxide ions, or water-soluble buffer systems is a significant aspect of this invention. These experimental observations indicate the need for a biphasic system, and preferably a multiphase/extractive membrane reactor as described below, for efficiently conducting the enzyme-mediated resolution process disclosed herein.

Series [7] is described as follows: Loss of compound A on extraction with 10% bisulfite solution. The class given is physicochemical. To be noted: diethyl ether solution extracted once with 10% bisulfite solution. The protocol: 2.0 g of pure, racemic compound A were dissolved in 200 mls of diethyl ether. This organic solution was then extracted once with 250 mls of a 10% bisulfite solution, washed with 250 mls water, dried over magnesium sulphate, and evaporated to leave 1.8 g of racemic compound A, indicating a 10% loss of material. Recovery of material in the absence of the bisulfite wash was nearly quantitative.

Series [8] can be described thus: Solubility of racemic ester in toluene. To be noted: 4° C. The format is physicochemical. Here is the method:
The amount of toluene required to dissolve the racemic ester at 4° C. was determined by dividing the weight of racemic ester by the solubility of the ester in toluene at this temperature (˜0.13 g of racemic ester/g of toluene). The weight of toluene required was then 19.07/0.13=146.7 g. The two organic fractions were combined and toluene was then evaporated until the total weight of toluene plus ester was equal to 146.7+109.5 or 256.2 g. Afterward, the organic concentrate containing ester and toluene was cooled to 4° C. for 18 hours in order to crystallize the (2R,3S) enantiomer of the ester. The precipitated crystals were then filtered and analyzed, while the mother liquor was saved for recycling. The amount of solids collected was 91.9 g. […] The yield of resolved ester was 38.6%.

A short description of series [9]: Stability of GLOP / racemic ester in solvents on standing. The class given is physicochemical. The text has this: At six days, only about half of the original amount of ester remained.
Series [10] in a line: Degradation rate of racemic ester in membrane reactor system, toluene vs MIBK. To be noted: organic solution in contact with 50 mM phosphate buffer pH 8.0, membrane reactor. The format is physicochemical. The protocol: In a separate experiment, the degradation rate of racemic ester was measured in a membrane reactor system using two kinds of solvent, toluene and methyl isobutyl ketone (MIBK), at different concentrations of glycidyl ester. These organic solutions were brought into contact separately with a 50 mM phosphate buffer (pH 8.0) to simulate enzymatic resolution conditions. The amount of ester present in the organic solutions was monitored over several hours.

The conditions of series [11]: aqueous solution; cited from earlier work.

As to `COc1ccc(CC=O)cc1` [C, 4-methoxyphenylacetaldehyde], the “Relative Initial Rates” value is recorded as 0.63 in series [1], 0.73 in series [2], 1.00 in series [3] and 0.38 in [4].
With `COC(=O)[C@@H]1O[C@H]1c1ccc(OC)cc1` (relative stereo) [Compound A, trans-3-(4-methoxyphenyl)glycidic acid methyl ester], the Percent degradation in series [5] (1,4-dioxane, pH 7.0, 18 hours ambient) worked out at 40.9%; in [5] (1,4-dioxane, pH 8.0, 18 hours ambient) it was 21.6%; in series [5] (MIBK, pH 8.0, 18 hours ambient), 15.0%; in [5] (MIBK, pH 8.5, 18 hours ambient) it was 12.0%; in series [5] (MetBuO, pH 7.0, 18 hours ambient), 41.8%; in [5] (MetBuO, pH 8.0, 18 hours ambient) it was 22.1%. In addition, the Percent degradation in series [5] (benzene, pH 7.0, 18 hours ambient) came out at 38.5%; in series [5] (benzene, pH 8.0, 18 hours ambient), 14.4%; in [5] (cyclohexane, pH 7.0, 18 hours ambient), 71.6%; in series [5] (cyclohexane, pH 8.0, 18 hours ambient) it was 38.5%; in series [5] (toluene, pH 8.0, 18 hours ambient) it was 14.3%; in [5] (toluene, pH 8.5, 18 hours ambient), 19.1%. Besides, the “Stability in aqueous buffer” value in series [6] (aqueous sodium phosphate buffer pH 7.0, 18 hours, ambient temperature, no organic solvent or enzyme) is given as “loss of glycidic ester”. The Glycidic ester recovered in series [6] (toluene in 1-to-1 phase ratio with pH 7.0 buffer, 18 hours) is 100%. Further, the Loss of material in [7] was 10%. Moreover, the “Solubility of the ester in toluene” value in series [8] is recorded as ~0.13 g of racemic ester/g of toluene. The “Original amount of ester remaining” value in series [9] (saturated methanol solution, room temperature, six days) is recorded as “about half”. In addition, the “Original amount of ester degraded” value in series [9] (saturated methanol solution, room temperature, two days, HPLC) was “about 9%”. In addition, the “Degradation rate constant in MIBK relative to toluene” value in series [10] is recorded as “about 3 times”.
On to `O=S(O)O` [bisulfite anion], for which, in series [11], the pKa result was “approximately 7”.
Take `COc1ccc(CC(=O)O)cc1` [D, 4-methoxyphenylacetic acid]: the “Relative Initial Rates” value in series [1] is 1.18; in series [2] it was 0.99; in series [3], 1.07; in series [4], >1.0.
On to `COC(=O)[C@@H]1O[C@H]1c1ccc(OC)cc1` [resolved GLOP, (2R,3S)-3-(4-methoxyphenyl)glycidic acid methyl ester], for which the “Stability in solution” value in series [9] (aromatic solvent, ambient temperature, over days) was “stable against the loss of material or optical activity”.
